Measured values: US5716964A, “Tetrazolyl substituted imidazo[1,2-a]pyridinylalkyl compounds for treatment of neurotoxic injury” (G.D. Searle & Co., priority 1995, dated 1998)
Counter-ions that a name gives are not always drawn. One block for each molecule: values may come before it.

Assays:
NMDA = settings: Murphy et al. 1987; cited from earlier work
AMPA (QUIS) receptor = experiment: [3H]AMPA (QUIS) binding assay; settings: [3H]AMPA 10 nM, 100 mM KSCN, SPM, 0-4 °C, 10 min; read-out: Ki IC50 Binding, AMPA
Procedure: Synaptic plasma membranes (SPM) were prepared as previously described [Monahan, J. B. and Michel, J., "Identification and Characterization of an N-methyl-D-aspartate-specific L[^3 H]glutamate Recognition Site in Synaptic Plasma Membranes, J. Neurochem., 48, 1699-1708 (1987)]. The SPM were stored at a concentration of 10-15 mg/ml in 0.32M sucrose, 0.5 mM EDTA, 1mM MgSO4, 5 mM Tris/SO4, pH 7.4, under liquid nitrogen. The identity and purity of the subcellular fractions were confirmed by both electron microscopy and marker enzymes. Protein concentrations were determined by using a modification of the method of Lowry [Ohnishi, S. T. and Barr, J. K., "A Simplified Method of Quantitating Proteins Using the Biuret and Phenol Reagents", Anal. Biochem., 86, 193-197 (1978)]. The SPM were treated identically for the [^3 H]AMPA (QUIS), [^3 H]kainate and sodium-dependent L-[^3 H]-glumatate binding assays. The SPM were thawed at room temperature, diluted twenty-fold with 50 mM Tris/acetate, pH 7.4, incubated at 37° C. for 30 minutes, and centrifuged at 100,000 g for 15 minutes. The dilution, incubation, and centrifugation was repeated a total of three times. Prior to use in the NMDA specific L-[^3 H]-glutamate binding assay the SPM were thawed, diluted twenty fold with 50 mM Tris/acetate, pH 7.4 containing 0.04% (v/v) Triton X-100, incubated for 30 minutes at 37° C. and centrifuged as described above. The Triton X-100 treated membranes were washed with 50 mM Tris/acetate, pH 7.4 and centrifuged at 100,000 g for 15 minutes a total of four times. […] The basic procedure for the receptor subclass binding assays was similar. This general method involved adding the radioligand (12.5 nM L-[^3 H]glutamate; 0.5 nM [^3 H]kainate or 10 nM [^3 H]AMPA) to the appropriate concentration of the test compound and initiating the assay by the addition of ice cold synaptic plasma membranes (0.2-0.45 mg). The binding assays were performed in 1.5 mL centrifuge tubes with the total volume adjusted to 1.0 mL. Additions of test compounds were made in 50 mM Tris/acetate, pH 7.4 and incubations were carried out at 0°-4° C. The incubation time for the NMDA and the AMPA binding assays was 10 minutes, for the kainate binding assay 60 minutes and for the sodium-dependent glutamate binding assay 15 minutes. The AMPA binding assay contained 100 mM KSCN and the sodium-dependent glutamate binding assay contained 150 mM sodium acetate in addition to the previously described reagents. To terminate the incubation, the samples were centrifuged for 15 minutes at 12,000 g and 4° C. in a Beckman Microfuge 12. The supernatant was aspirated and the pelleted membranes dissolved in Beckman BTS-450 tissue solubilizer for a minimum of 6 hours at room temperature. Beckman MP scintillation cocktail containing 7 mL/l acetic acid was then added and the samples counted on a Beckman LS 5800 or 3801 liquid scintillation counter with automatic corrections for quenching and counting efficiency. Nonspecific binding was defined as the residual binding in the presence of either excess L-glutamate (0.1-0.4 mM), kainate (0.01 mM), or NMDA (0.5 mM), and was 15-25% of the total binding in the NMDA binding assay, 19-27% in the AMPA binding assay, 20-30% in the kainate binding assay and 10-15% in the sodium-dependent binding assay. Radioligand binding to the synaptic plasma membranes was analyzed using Scatchard and Hill transformations and the Ki values of the compounds determined using logit-log transformations. Calculations and regression analysis were performed using templates developed for Lotus 1, 2, 3 as previously described [Pullan, L. M. "Automated Radioligand Receptor Binding Analysis with Templates for Lotus", Computer Appln. Biosci., 3, 131 (1987)]. Binding results are reported in Table I for example compounds of the invention.

[1] = test system: Mongolian gerbils, CA1 region of the hippocampus; experiment: Forebrain ischemia assay (bilateral carotid occlusion, CA1 hippocampal neuron count); format: in vivo, Mongolian gerbil; settings: vs control, Mann-Whitney U test
Procedure: This assay was used to determine the extent of protection afforded by compound of the invention to neural brain cells subjected to ischemic conditions. Male Mongolian gerbils, 50-70 gm, were used as subjects. Compound No. 7 (30 mg/kg) was injected i.p. 30 minutes prior to carotid occlusion into 6 gerbils […]. In preparation for surgical procedures, the animals were lightly anesthetized with methoxyflurane and placed upside down on a heated pad with their snout within a nosecone. A 70:30 mixture of nitrous oxide and oxygen containing 0.5% halothane was circulated through the nosecone to provide continuous anesthesia throughout the surgical procedure. A midline incision was made in the neck and the carotid arteries were exposed. A length of suture thread was placed under each carotid. […] Quantification of the resulting lesion is made by counting the pyramidal cell somata in a 0.5 mm length of CAl of the hippocampus on the section corresponding to P 1.7 mm in the gerbil brain atlas.
Normal cell count in this region of the hippocampus in unoperated gerbils is 146±2. The effects of compound of Ex. #7 were assessed by comparing the number of neural cells found in the hippocampus of subjects treated with Ex. #7 compound with the cell number found in the appropriate control groups. […]

[2] = test system: mice (tonic hindlimb extensor seizures); experiment: Anticonvulsant assay (electroconvulsive shock, tonic hindlimb extensor seizures); format: in vivo, mouse (CD-1); settings: s.c., 30 min prior to ECS
Text: (§1) 6, 351-353 (1977)]. […] The screens were then slowly inverted. […] The current was held constant at 15 mA. […] There were 10 mice in each treatment group.

mice (motor function) = experiment: Inverted screen test for motor impairment; format: in vivo, mouse (CD-1)
Text: as §1

[3] = test system: cGMP levels in cerebellum; experiment: Effect on cGMP levels in cerebellum; format: in vivo, mouse (Swiss-Webster); settings: s.c.
Procedure: The purpose of this assay is to determine the extent of in vivo bioavailability and the potency as an NMDA antagonist of compound of the invention as compared to known NMDA antagonists, namely, 3(2-carboxypiperizine-4-yl)propyl-1-phosphonic acid (CPP~ and cis-4-phosphonomethyl-2-piperidinecarboxylic acid (CGS 19755). Male Swiss-Webster mice (17-24 g were injected sub-cutaneously (s.c.) with compound of the invention and the known NMDA antagonist standards 30 minutes prior to sacrifice by focussed microwave irradiation. Groups consisted of 7-10 mice. Compounds of Ex. #7 was dissolved in isotonic saline and all compounds were administered in a volume of 0.2 ml per mouse. Cerebella samples were extracted in IN HCl. Hydrochloric acid in extracts of the cerebellum were freeze-dried for assay of cGMP with a commercial RIA kit (NEN). Statistics (Dunett's t-test) were performed as described previously [P. L. Wood et al., Neurochem, 19, 975-982 (1980)]. ED50 values were calculated from log-logit transformation of the dose-response data.

[4] = test system: TCP (1-[1-(2-thienyl)cyclohexyl]piperidine) binding in rat brain synaptic membranes; experiment: TCP modulation assay ([3H]TCP binding); settings: printed in the column TCP Ki IC50
Procedure: The effect on the TCP (1-[1-(2-thienyl)cyclohexyl]piperidine) binding was measured in rat brain synaptic membranes (SPM) prepared as previously described [J. B. Monahan & J. Michel; J. Neurochem. 48:1699-1708 (1987)]. Prior to their use in the binding assay, frozen SPM were thawed, diluted twenty fold with 50 mM Tris/acetate (pH 7.4 containing 0.04% (v/v) Triton X-100), incubated for 30 min. at 37° C. and centrifuged at 95,000×g for 15 min. The Triton X-100 treated SPM were washed with 5 mM Tris/HCl, pH 7.4 and centrifuged a total of six times. The compound of Example #7 was incubated at different concentrations with SPM (0.2-0.4 mg protein) and 2 nM tritiated TCP, in a total volume of 0.5 ml of 5 mM Tris/HCl buffer pH 7.4 at 25° C. for 60 min. The samples were filtered through glass fiber filters (Schleicher & Schuell #32) which have been pretreated with 0.05% (v/v) polyethylenimine, washed 4 times with 2 ml of ice-cold 5 mM Tris/HCl buffer, and then counted on a Beckman LS 5800 liquid scintillation counter with automatic corrections for quenching and counting efficiency. Inhibition of TCP binding was measured as a decrease in the binding in the presence of 0.05 mM L-glutamate. Non-specific binding was defined as the residual binding in the presence of […] phencyclidine.

Structure (SMILES): O=C(O)C1CN(CCCP(=O)(O)O)CCN1 (stereo not drawn) [CPP, 3-(2-carboxypiperazin-4-yl)propyl-1phosphonic acid]
NMDA antagonism, in words (NMDA): potent and selective NMDA antagonist

Structure (SMILES): O=C(O)c1cn2c(CP(=O)(O)O)cccc2n1 [Example 7, 5-(phosphonomethyl)imidazo[1,2-a]pyridine-2-carboxylic acid]
Ki (AMPA (QUIS) receptor): > 300 µM
hippocampal cell loss after ischemia, in words [1]: significantly reduced
protection against tonic hindlimb extensor seizures, in words [2]: protected against tonic hindlimb extensor seizures in a dose-dependent fashion
Exhibiting Motor Impairments (mice (motor function); 10 mg/kg s.c.): 30 % of Mice
Exhibiting Motor Impairments (mice (motor function); 32 mg/kg s.c.): 50 % of Mice
Exhibiting Motor Impairments (mice (motor function); 56 mg/kg s.c.): 70 % of Mice
Exhibiting Motor Impairments (mice (motor function); 100 mg/kg s.c.): 90 % of Mice
impairment of motor function, in words (mice (motor function); s.c., inverted screen): impaired motor function in a similar dose range
brain bioavailability (decrease of cGMP in mouse cerebellum), in words [3]: brain bioavailable
potency compared with CPP, in words ([3]; decrease in cerebellar cGMP): in the same range of potency as the known NMDA antagonist CPP

Ki (AMPA (QUIS) receptor): > 300 µM
Structure (SMILES): O=C(O)c1cn2cc(CP(=O)(O)O)ccc2n1 [Example 13, 6-(phosphonomethyl)imidazo[1,2-a]pyridine-2-carboxylic acid]

Ki (AMPA (QUIS) receptor): > 300 µM
Structure (SMILES): O=C(O)c1cn2ccc(CP(=O)(O)O)cc2n1 [Example 18, 7-(phosphonomethyl)imidazo[1,2-a]pyridine-2-carboxylic acid]

Ki (AMPA (QUIS) receptor): > 300 µM
Structure (SMILES): O=C(O)c1cn2cccc(CP(=O)(O)O)c2n1 [Example 23, 8-(phosphonomethyl)imidazo[1,2-a]pyridine-2-carboxylic acid]

Ki (AMPA (QUIS) receptor): > 300 µM
Structure (SMILES): O=C(O)c1cn2c(CP(=O)(O)O)c(Cl)ccc2n1 [Example 30, 6-chloro-5-(phosphonomethyl)imidazo[1,2-a]pyridine-2-carboxylic acid]

Ki (AMPA (QUIS) receptor): > 300 µM
TCP binding, result in words [4]: antag.
Structure (SMILES): O=C(O)c1cn2c(C(O)P(=O)(O)O)cccc2n1 (stereo not drawn) [Example 57, 5-(hydroxyphosphonomethyl)imidazo[1,2-a]pyridine-2-carboxylic acid, monohydrochloride]

Structure (SMILES): Cc1c(C(=O)O)nc2c(CP(=O)(O)O)cccn12 [Example 67, 3-methyl-8-(phosphonomethyl)imidazo[1,2-a]pyridine-2-carboxylic acid, monohydrochloride]
Ki (AMPA (QUIS) receptor): > 300 µM
